Data as given in ChEMBL document CHEMBL5291721, “A preclinical secondary pharmacology resource illuminates target-adverse drug reaction associations of marketed drugs” (Nat Commun, 2023).

Columns and labels:
D(3) dopamine receptor = D(3) dopamine receptor (Homo sapiens, UniProt P35462)
Acetylcholinesterase = Acetylcholinesterase (Homo sapiens, UniProt P22303); format: functional
[1] = biological target: T1, Alpha-1A adrenergic receptor (Homo sapiens, UniProt P35348); format: functional, cell-based
T1 sequence (P35348 whole entry): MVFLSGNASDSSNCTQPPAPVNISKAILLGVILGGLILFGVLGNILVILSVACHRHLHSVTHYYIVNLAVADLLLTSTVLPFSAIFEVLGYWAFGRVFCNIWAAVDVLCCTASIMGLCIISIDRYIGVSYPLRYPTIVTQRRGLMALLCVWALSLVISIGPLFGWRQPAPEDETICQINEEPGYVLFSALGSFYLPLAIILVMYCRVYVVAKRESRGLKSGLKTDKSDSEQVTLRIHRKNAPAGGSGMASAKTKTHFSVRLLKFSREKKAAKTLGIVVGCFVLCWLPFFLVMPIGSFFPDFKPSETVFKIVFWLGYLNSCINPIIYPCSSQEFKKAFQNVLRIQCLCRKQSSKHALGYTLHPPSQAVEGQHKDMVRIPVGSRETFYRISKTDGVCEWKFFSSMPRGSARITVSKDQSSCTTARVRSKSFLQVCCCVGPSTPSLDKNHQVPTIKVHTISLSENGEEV

[2] = biological target: T1, Alpha-1A adrenergic receptor; format: functional, cell-based; remark: listed apart in the source
[3] = biological target: T2, Alpha-2A adrenergic receptor (Homo sapiens, UniProt P08913)
T2 sequence (P08913 whole entry): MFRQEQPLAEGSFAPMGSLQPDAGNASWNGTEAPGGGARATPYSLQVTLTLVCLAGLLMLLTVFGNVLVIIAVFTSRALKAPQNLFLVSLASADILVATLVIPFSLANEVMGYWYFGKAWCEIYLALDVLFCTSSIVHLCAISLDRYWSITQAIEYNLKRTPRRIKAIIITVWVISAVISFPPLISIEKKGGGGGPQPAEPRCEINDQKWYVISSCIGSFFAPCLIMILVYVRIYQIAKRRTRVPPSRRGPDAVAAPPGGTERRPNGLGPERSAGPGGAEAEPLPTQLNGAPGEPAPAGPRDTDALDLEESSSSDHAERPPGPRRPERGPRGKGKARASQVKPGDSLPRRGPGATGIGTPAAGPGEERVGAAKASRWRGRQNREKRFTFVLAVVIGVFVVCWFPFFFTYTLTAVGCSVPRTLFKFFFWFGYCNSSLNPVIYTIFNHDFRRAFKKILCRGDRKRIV

[4] = biological target: T3, Muscarinic acetylcholine receptor M2 (Homo sapiens, UniProt P08172)
T3 sequence (P08172 whole entry): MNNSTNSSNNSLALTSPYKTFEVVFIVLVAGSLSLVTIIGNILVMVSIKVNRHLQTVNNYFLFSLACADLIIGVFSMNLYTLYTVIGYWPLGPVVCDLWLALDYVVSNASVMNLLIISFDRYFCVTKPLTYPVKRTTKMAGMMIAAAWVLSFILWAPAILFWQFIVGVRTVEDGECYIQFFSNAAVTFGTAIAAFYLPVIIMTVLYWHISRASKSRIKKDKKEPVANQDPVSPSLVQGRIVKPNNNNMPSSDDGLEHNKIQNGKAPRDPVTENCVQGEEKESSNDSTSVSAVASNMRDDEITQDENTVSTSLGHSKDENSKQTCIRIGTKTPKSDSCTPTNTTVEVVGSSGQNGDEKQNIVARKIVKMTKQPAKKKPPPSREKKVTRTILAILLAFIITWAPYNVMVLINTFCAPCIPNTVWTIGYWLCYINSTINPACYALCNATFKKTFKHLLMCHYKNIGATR

D(1A) dopamine receptor = D(1A) dopamine receptor (Homo sapiens, UniProt P21728)
D(1A) dopamine receptor, sequence (P21728 whole entry): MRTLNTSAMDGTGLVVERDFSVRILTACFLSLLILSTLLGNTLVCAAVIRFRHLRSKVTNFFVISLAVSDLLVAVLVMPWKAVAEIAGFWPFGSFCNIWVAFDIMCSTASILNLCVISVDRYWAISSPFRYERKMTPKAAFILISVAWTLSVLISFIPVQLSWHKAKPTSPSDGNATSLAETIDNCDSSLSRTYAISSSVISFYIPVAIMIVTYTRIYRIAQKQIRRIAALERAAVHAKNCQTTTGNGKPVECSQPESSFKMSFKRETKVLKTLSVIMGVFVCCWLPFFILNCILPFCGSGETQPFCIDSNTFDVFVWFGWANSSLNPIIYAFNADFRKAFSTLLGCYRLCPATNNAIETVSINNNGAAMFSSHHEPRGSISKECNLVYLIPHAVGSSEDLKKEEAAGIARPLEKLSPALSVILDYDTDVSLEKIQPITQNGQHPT

[5] = biological target: Gamma-aminobutyric acid receptor subunit alpha-1/alpha-2/beta-2/gamma-2 (Homo sapiens, UniProt P14867+P18507+P47869+P47870); format: protein-complex assay
Histamine H3 receptor = Histamine H3 receptor (Homo sapiens, UniProt Q9Y5N1)
Histamine H3 receptor, sequence (Q9Y5N1 whole entry): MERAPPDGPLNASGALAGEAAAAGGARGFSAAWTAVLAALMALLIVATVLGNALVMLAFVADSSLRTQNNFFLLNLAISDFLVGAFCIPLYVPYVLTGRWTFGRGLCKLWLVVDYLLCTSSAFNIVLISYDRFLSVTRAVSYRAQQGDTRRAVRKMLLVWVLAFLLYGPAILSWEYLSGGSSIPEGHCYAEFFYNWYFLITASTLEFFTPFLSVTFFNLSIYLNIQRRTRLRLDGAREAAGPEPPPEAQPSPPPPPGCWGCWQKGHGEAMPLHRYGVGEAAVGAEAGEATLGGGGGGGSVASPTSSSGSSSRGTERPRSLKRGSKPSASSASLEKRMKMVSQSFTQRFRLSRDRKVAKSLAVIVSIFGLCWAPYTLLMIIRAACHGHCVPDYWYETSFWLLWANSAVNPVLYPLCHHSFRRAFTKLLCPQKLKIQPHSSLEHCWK

[6] = biological target: T4, 5-hydroxytryptamine receptor 1A (Homo sapiens, UniProt P08908)
T4 sequence (P08908 whole entry): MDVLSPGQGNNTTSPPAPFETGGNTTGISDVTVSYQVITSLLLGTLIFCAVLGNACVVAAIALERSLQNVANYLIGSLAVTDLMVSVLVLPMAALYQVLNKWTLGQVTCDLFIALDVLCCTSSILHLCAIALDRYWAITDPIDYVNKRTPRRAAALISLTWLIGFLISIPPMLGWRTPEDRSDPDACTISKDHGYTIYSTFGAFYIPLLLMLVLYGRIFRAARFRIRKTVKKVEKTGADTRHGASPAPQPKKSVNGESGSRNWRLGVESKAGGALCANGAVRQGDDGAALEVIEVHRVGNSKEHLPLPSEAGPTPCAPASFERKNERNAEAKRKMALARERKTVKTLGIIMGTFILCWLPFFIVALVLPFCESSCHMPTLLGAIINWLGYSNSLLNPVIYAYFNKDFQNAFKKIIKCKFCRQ

[7] = biological target: 5-hydroxytryptamine receptor 2B (Homo sapiens, UniProt P41595); format: functional, cell-based
5-hydroxytryptamine receptor 2B, sequence (P41595 whole entry): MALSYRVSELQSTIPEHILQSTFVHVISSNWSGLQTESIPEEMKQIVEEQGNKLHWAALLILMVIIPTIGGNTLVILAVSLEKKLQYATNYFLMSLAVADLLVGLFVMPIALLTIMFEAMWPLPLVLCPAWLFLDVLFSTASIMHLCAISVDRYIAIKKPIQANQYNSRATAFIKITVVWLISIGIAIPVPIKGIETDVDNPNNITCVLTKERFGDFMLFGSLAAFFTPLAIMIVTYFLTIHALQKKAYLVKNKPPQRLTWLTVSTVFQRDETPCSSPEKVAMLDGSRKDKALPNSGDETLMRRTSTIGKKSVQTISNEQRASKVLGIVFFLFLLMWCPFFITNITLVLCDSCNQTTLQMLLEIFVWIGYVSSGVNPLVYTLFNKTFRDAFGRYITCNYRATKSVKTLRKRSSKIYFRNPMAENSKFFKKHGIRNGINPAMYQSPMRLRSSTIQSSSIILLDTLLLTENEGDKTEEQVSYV

[8] = biological target: T5, Amine oxidase [flavin-containing] A (Homo sapiens, UniProt P21397); format: functional
T5 sequence (P21397 whole entry): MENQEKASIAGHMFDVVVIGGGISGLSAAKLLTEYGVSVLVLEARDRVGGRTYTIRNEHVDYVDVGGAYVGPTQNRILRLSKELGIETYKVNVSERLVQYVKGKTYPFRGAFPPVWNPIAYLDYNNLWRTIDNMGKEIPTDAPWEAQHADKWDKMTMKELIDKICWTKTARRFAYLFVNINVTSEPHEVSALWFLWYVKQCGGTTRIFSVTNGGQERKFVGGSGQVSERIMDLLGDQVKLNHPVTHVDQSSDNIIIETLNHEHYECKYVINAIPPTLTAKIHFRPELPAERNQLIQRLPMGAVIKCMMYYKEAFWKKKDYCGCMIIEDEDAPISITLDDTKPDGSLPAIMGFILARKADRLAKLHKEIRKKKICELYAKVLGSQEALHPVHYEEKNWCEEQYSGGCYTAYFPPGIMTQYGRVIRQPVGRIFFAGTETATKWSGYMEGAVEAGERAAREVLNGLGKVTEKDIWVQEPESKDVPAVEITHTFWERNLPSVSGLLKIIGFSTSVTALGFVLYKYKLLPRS

Mu-type opioid receptor = Mu-type opioid receptor (Homo sapiens, UniProt P35372)
Mu-type opioid receptor, sequence (P35372 whole entry): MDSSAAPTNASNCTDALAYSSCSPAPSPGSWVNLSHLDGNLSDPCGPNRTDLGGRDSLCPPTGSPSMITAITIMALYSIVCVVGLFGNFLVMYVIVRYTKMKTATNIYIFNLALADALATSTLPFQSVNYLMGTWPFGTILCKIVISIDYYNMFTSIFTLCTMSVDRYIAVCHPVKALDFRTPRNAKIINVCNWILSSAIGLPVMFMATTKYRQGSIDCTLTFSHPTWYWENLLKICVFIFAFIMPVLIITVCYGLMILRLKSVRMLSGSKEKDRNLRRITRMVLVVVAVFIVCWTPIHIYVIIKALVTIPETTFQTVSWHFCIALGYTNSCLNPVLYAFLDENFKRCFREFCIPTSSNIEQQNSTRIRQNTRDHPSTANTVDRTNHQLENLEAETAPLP

[9] = biological target: Sodium-dependent noradrenaline transporter (Homo sapiens, UniProt P23975)
[10] = biological target: Sodium-dependent dopamine transporter (Homo sapiens, UniProt Q01959)
Sodium-dependent dopamine transporter, sequence (Q01959 whole entry): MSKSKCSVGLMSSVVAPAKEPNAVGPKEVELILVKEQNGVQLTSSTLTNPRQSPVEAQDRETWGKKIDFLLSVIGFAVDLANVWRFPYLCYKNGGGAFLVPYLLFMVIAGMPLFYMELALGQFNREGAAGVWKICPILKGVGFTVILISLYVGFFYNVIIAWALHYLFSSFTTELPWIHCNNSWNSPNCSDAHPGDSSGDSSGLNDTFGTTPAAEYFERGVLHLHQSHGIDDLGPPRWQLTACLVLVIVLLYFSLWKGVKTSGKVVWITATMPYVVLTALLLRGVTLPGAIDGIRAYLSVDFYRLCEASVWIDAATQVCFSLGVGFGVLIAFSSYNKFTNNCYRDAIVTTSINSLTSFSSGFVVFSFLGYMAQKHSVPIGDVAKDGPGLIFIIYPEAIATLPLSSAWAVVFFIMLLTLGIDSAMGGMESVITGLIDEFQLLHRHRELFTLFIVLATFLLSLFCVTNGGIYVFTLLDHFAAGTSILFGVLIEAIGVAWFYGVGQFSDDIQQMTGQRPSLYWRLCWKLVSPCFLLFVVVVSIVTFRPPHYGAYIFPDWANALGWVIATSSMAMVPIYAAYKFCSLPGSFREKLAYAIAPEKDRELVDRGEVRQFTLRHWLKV

Adenosine receptor A3 = biological target: T6, Adenosine receptor A3 (Homo sapiens, UniProt P0DMS8)
T6 sequence (P0DMS8 whole entry): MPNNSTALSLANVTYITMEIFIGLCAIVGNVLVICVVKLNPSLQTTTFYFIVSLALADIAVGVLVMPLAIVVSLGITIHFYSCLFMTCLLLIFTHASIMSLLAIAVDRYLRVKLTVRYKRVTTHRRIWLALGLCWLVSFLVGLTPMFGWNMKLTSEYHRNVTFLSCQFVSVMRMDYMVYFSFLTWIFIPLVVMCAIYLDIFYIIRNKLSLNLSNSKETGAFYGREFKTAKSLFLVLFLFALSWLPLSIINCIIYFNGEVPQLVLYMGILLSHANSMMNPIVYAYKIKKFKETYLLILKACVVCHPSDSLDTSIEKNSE

Thromboxane A2 receptor = biological target: T7, Thromboxane A2 receptor (Homo sapiens, UniProt P21731)
T7 sequence (P21731 whole entry): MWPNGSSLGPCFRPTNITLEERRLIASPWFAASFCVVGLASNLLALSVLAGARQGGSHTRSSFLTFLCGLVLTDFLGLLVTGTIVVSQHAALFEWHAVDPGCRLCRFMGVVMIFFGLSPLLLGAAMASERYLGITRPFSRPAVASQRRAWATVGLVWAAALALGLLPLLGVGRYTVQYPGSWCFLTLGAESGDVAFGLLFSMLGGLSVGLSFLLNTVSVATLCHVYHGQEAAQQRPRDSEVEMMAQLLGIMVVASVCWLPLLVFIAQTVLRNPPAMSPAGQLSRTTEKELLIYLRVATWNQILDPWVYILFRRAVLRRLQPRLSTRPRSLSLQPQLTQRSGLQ

[11] = biological target: Voltage-gated inwardly rectifying potassium channel KCNH2 (Homo sapiens, UniProt Q12809); format: functional; conditions: read-out: AC50
Voltage-gated inwardly rectifying potassium channel KCNH2, sequence (Q12809 whole entry): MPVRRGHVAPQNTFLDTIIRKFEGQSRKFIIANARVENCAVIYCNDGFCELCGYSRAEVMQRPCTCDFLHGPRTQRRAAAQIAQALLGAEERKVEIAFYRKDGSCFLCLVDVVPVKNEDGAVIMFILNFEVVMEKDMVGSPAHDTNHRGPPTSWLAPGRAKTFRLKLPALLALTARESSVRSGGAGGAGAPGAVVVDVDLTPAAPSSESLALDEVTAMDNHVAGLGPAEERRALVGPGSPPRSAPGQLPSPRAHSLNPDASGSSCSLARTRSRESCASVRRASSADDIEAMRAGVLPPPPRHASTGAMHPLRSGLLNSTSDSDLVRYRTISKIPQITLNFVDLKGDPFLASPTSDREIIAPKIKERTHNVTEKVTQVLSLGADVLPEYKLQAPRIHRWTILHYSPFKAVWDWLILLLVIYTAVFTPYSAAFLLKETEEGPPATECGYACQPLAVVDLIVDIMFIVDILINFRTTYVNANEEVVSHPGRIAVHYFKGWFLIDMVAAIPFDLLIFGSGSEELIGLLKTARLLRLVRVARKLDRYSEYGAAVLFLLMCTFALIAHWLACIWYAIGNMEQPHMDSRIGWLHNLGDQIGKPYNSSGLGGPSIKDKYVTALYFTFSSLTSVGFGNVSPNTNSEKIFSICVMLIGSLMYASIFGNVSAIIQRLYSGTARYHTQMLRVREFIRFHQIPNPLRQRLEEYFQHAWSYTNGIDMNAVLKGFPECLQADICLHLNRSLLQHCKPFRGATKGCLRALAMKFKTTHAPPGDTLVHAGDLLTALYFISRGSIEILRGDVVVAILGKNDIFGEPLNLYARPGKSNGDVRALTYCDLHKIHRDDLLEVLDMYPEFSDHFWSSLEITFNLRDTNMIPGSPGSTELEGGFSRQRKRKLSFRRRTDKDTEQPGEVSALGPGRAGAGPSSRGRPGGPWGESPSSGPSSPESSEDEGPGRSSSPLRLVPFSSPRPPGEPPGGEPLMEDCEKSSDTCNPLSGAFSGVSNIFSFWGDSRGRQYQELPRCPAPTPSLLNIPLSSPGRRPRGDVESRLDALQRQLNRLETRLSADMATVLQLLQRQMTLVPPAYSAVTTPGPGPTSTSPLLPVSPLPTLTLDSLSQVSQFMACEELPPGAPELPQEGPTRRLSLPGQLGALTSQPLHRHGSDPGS
Further: assay procedure not described here.

Acetylcholinesterase, sequence (P22303 whole entry): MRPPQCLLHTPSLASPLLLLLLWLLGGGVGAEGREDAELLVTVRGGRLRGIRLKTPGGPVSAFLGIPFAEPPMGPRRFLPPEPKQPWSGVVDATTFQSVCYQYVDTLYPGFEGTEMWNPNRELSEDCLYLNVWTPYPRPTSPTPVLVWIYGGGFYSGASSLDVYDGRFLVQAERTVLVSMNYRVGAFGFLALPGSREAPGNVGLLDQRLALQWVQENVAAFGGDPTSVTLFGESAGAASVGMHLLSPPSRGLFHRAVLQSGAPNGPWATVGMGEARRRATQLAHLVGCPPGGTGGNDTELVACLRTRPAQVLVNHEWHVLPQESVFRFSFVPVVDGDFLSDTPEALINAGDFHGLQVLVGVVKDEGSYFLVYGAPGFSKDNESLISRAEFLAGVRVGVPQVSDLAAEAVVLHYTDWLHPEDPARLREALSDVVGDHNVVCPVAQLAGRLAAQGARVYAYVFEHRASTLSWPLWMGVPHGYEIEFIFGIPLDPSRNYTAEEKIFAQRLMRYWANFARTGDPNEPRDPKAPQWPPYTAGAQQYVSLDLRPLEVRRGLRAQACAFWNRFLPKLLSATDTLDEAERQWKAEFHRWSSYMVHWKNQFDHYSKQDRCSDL
D(3) dopamine receptor, sequence (P35462 whole entry): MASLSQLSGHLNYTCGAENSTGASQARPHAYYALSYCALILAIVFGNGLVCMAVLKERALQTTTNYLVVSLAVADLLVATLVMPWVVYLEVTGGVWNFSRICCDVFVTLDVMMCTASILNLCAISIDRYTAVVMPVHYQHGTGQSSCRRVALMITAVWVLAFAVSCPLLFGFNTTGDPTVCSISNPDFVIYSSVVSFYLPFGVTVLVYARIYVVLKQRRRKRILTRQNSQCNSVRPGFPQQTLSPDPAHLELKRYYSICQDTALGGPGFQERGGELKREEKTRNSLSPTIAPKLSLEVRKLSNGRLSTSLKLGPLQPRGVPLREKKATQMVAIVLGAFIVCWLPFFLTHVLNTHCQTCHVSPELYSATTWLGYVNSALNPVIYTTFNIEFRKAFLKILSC

CN(C)CC/C=C1/c2ccccc2Sc2ccc(Cl)cc21 [CHLORPROTHIXENE] gave an AC50 (D(3) dopamine receptor) of 0.003 µM.

In the case of Oc1ccccc1 [PHENOL], the AC50 (Acetylcholinesterase) is reported as > 30 µM, the AC50 [1] is reported as > 30 µM and the AC50 [2] is reported as > 30 µM. For the same compound, the AC50 [3] was > 30 µM, the AC50 [4] was > 30 µM and the AC50 (D(1A) dopamine receptor) was > 30 µM. The AC50 (D(3) dopamine receptor) was > 30 µM, the AC50 [5] was > 30 µM and the AC50 (Histamine H3 receptor) was > 30 µM. The AC50 [6] was > 30 µM, the AC50 [7] was > 30 µM and the AC50 [8] was > 30 µM. The AC50 (Mu-type opioid receptor) was > 30 µM, the AC50 [9] was > 30 µM and the AC50 [10] was > 30 µM.

CNC(=C[N+](=O)[O-])NCCSCc1ccc(CN(C)C)o1 [RANITIDINE] was tested, and the AC50 (Adenosine receptor A3) was > 30 µM.

For O=C(O)CN(CCN(CC(=O)O)CC(=O)O)CC(=O)O [EDETIC ACID], the AC50 (Acetylcholinesterase) was > 30 µM.

With CCCCC[C@H](O)/C=C/[C@H]1[C@H](O)CC(=O)[C@@H]1CCCCCCC(=O)O [ALPROSTADIL] the AC50 (Thromboxane A2 receptor) was > 10 µM.

CC[N+](CC)(CC)CCOc1cccc(OCC[N+](CC)(CC)CC)c1OCC[N+](CC)(CC)CC [GALLAMINE] was tested, and the AC50 (Acetylcholinesterase) was > 30 µM and the AC50 [11] was 8.99 µM.

With COc1ccc2c3c1O[C@H]1C[C@@H](O)C=C[C@@]31CCN(C)C2 [GALANTAMINE] the AC50 [11] was > 30 µM.
